Measured values as given in US20260250318A1, “COMPOSITIONS AND METHODS FOR CROSSING THE BLOOD BRAIN BARRIER” (VOYAGER THERAPEUTICS, INC., priority 2022, published 2026).

Experiments:
[1] = tested on: brain; test: Matured TTM-001 and TTM-002 variants, NGS enrichment in mouse brain; format: in vivo, mice; conditions: relative to AAV9 control
[2] = tested on: brains, heart, liver, muscle, and DRG of the NHPs; test: Maturation of TTM-001 and TTM-002 capsids, NGS enrichment in NHP tissues; format: in vivo; conditions: relative to AAV9 control
Outline: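 Variants carry mutations within and flanking the loop IV peptide insert: positions 450–466 were triplet-randomized, while positions 449–466 received low-frequency point mutations. The combined pool went into two NHPs, and each peptide was scored by NGS enrichment ratio against AAV9.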

[3] = NGS fold-enrichment of matured AAV capsid variants, NHP brain, RNA
[4] = NGS fold-enrichment, brain of mice
[5] = NGS fold-enrichment, mouse brain
[6] = NGS fold-enrichment of RNA, NHP brain
[7] = NGS fold-enrichment, DRG of NHPs
[8] = NGS fold-enrichment, NHP liver DNA
[9] = NGS fold-enrichment, NHP liver RNA
[10] = NGS fold-enrichment, NHP muscle
[11] = NGS fold-enrichment, RNA, brain of NHPs
[12] = NGS fold-enrichment, heart of NHPs
[13] = NGS fold-enrichment, liver DNA of NHPs
[14] = NGS fold-enrichment, liver RNA of NHPs
[15] = NGS fold-enrichment, muscle of NHPs

Sequence | Fold Enrichment relative to AAV9, Brain (Mouse) ([1]; mouse brain) [fold] | Fold Enrichment relative to AAV9, Brain (NHP) [2, 3] [fold] | Fold Enrichment relative to AAV9, DRG (NHP) ([2]; NHP DRG) [fold] | Fold Enrichment relative to AAV9, Heart (NHP) ([2]; NHP heart) [fold] | Fold Enrichment relative to AAV9, Liver DNA (NHP) ([2]; NHP liver, DNA) [fold] | Fold Enrichment relative to AAV9, Liver RNA (NHP) ([2]; NHP liver, RNA) [fold] | Fold Enrichment relative to AAV9, Muscle (NHP) ([2]; NHP muscle) [fold] | Fold Enrichment relative to AAV9, Brain (Mouse) [1, 4] [fold] | Fold Enrichment relative to AAV9, Brain (Mouse) [1, 5] [fold] | Fold Enrichment relative to AAV9, Brain (NHP) [2, 6] [fold] | Fold Enrichment relative to AAV9, DRG (NHP) [2, 7] [fold] | Fold Enrichment relative to AAV9, DRG (NHP) ([2]; NGS fold-enrichment, NHP DRG) [fold] | Fold Enrichment relative to AAV9, Heart (NHP) ([2]; NGS fold-enrichment, NHP heart) [fold] | Fold Enrichment relative to AAV9, Liver DNA (NHP) [2, 8] [fold] | Fold Enrichment relative to AAV9, Liver RNA (NHP) [2, 9] [fold] | Fold Enrichment relative to AAV9, Brain (NHP) [2, 11] [fold] | Fold Enrichment relative to AAV9, Heart (NHP) [2, 12] [fold] | Fold Enrichment relative to AAV9, Liver DNA (NHP) [2, 13] [fold] | Fold Enrichment relative to AAV9, Liver RNA (NHP) [2, 14] [fold] | Fold Enrichment relative to AAV9, Muscle (NHP) [2, 15] [fold] | other results
KTEPMSGSPHSKAQNQQT | 126.322 | 50.960 | 0.203 | 0.000 | 0.415 | 1.816 | 0.000 |  |  |  |  |  |  |  |  |  |  |  |  |  | 
KTEPTSGSPHSKAQNQQT | 143.397 | 56.134 | 0.000 | 0.000 | 0.527 | 0.061 | 0.000 |  |  |  |  |  |  |  |  |  |  |  |  |  | 
KTEQTSGSPHSKAQNQQT | 59.360 | 56.683 | 0.000 | 0.045 | 0.430 | 0.792 | 0.000 |  |  |  |  |  |  |  |  |  |  |  |  |  | 
KTEQVSGSPHSKAQNQQT | 88.487 | 58.247 | 0.000 | 0.000 | 0.081 | 0.000 | 0.000 |  |  |  |  |  |  |  |  |  |  |  |  |  | 
KTERASGSPHSKAQNQQT |  |  |  |  |  |  |  | 115.550 | 115.550 | 103.669 | 0.000 | 0.000 | 0.000 | 0.070 | 0.127 | 103.669 | 0.000 | 0.070 | 0.127 | 0.000 | Fold Enrichment relative to AAV9, Muscle (NHP) [2, 10]: 0.000 fold
KTERGSGSPHSKAQNQQT | 85.368 | 53.475 | 0.000 | 0.030 | 0.175 | 1.416 | 0.000 |  |  |  |  |  |  |  |  |  |  |  |  |  | 
KTERISGSPHSKAQNQQT |  |  |  |  |  |  |  | 89.637 | 89.637 | 103.692 | 0.000 | 0.000 | 0.000 | 0.370 | 0.062 | 103.692 | 0.000 | 0.370 | 0.062 | 0.000 | Fold Enrichment relative to AAV9, Muscle (NHP) [2, 10]: 0.000 fold
KTERLSGSPHSKAQNQQT |  |  |  |  |  |  |  | 102.372 | 102.372 | 95.857 | 0.000 | 0.000 | 0.004 | 0.260 | 0.126 | 95.857 | 0.004 | 0.260 | 0.126 | 0.005 | Fold Enrichment relative to AAV9, Muscle (NHP) [2, 10]: 0.005 fold
KTERMSGSPHSKAQNQQT |  |  |  |  |  |  |  | 122.812 |  |  | 0.000 |  |  |  |  | 74.910 | 0.000 | 0.151 | 0.100 | 0.000 | 
